Assay results reported in patent US20150224164A1, “TREATMENT OF AUTISM SPECTRUM DISORDERS USING GLYCYL-L-2-METHYLPROLYL-L-GLUMATIC ACID” (Neuren Pharmaceuticals Limited, priority 2013, published 2015).
Where a SMILES comes first, the peptide text is derived from it.

Columns and labels:
[1] = system: ChAT-positive neurons in the striatum; assay: ChAT immunohistochemistry in striatum of aging rats; type: in vivo, rat; conditions: single s.c. dose 0.012-12 mg/kg; 18-month old rats; 3 days after treatment
Description: Eighteen-month old male rats received one of five treatments. A control group was treated with vehicle (saline alone (n=4) and four groups were treated with a single dose of G-2-MePE. […] Rats were sacrificed with an overdose of pentobarbital 3 days after drug treatment. Brains were perfused with normal saline and 4% paraformaldehyde and fixed in perfusion fixative overnight. Brains were stored in 25% sucrose in 0.1M PBS (pH7.4) until the tissue sank. Frozen coronal sections of striatum were cut with a microtome and stored in 0.1% sodium azide in 0.1M PBS at 4° C. Immunoreactivity for choline acetyltransferase (ChAT) was established by staining using a free floating section method. Briefly, antibodies were diluted in 1% goat serum. The sections were incubated in 0.2% triton in 0.1M PBS/Triton™ at 4° C. overnight before Immunohistochemical staining. The sections were pre-treated with 1% H2O2 in 50% methanol for 20 min. The sections were then incubated with rabbit (Rb) anti-ChAT (1:5000) antibodies (the primary antibodies) in 4D on a shaker for two days. The sections were washed using PBS/Triton™ (15 minutes×3d) and then incubated with goat anti-rabbit biotinylated secondary antibodies (1:1000) at room temperature overnight. […] The size of the striatal region used for the count was measured using an image analyser. […] Data were analysed using a paired t-test and presented as mean+/−SEM.

[2] = system: heterozygous Shank3-deficient mice; assay: Social interaction and ultrasonic vocalization, Shank3-deficient mice (Example 13); type: in vivo, mouse; conditions: 15 or 60 mg/kg oral b.i.d. 14 days; vs placebo
Description: 1 to 3 month old wild type and heterozygous Shank3-deficient mice are divided into 4 treatment groups: placebo treated wild-type, placebo treated Shank3-deficient group and two Shank3-deficient G-2-MePE treated groups. The animals are given placebo (water) or G-2-MePE formulated in water administered orally, b.i.d for 14 days. G-2-MePE is administered at two doses: 15 or 60 mg/kg.
Behavioral assessments are made at several time points, and include analysis of social interactions and ultrasonic social communication, in line with the methodology described by Bozdagi et al. Briefly, male-female social interactions in each treatment group are evaluated. The subject males are group-housed and individually tested in clean cages with clean litter. Each testing session lasts 5 min. […] Videos from the male subjects are subsequently scored by an investigator uninformed of the subject's genotype and treatment group on measures of nose-to-nose sniffing, nose-to-anogenital sniffing and sniffing of other body regions, using Noldus Observer software (Noldus Information Technology, Leesburg, Va., USA). Ultrasonic vocalizations are identified manually by two highly trained investigators blinded to genotype/treatment group information, and summary statistics are calculated using the Avisoft package. […] Data are analysed using an unpaired Student's t-test.

Compound: C[C@@]1(C(=O)N[C@@H](CCC(=O)O)C(=O)O)CCCN1C(=O)CN [Example G-2-MePE, Glycyl-L-2-methylprolyl-L-glutamic acid] (HELM PEPTIDE1{G.[C[C@@]1(C(=O)[*:2])CCCN1[*:1]].E}$$$$V2.0)
- number of ChAT-immunopositive neurons [1]: increased
- cumulative duration of total social sniffing [2]: significant increase
- number of ultrasonic vocalizations [2]: increased number of ultrasonic vocalizations
